The results in this text go back to patent US12655150B2 (Cedilla Therapeutics, Inc., priority 2021, dated 2026).

The assay relates to NCI-H226. The assay can be described thus: 72H TEAD Proliferation Assay (Cell Titer Glo 2.0). It counts as cell-based. The settings on record: Homo sapiens, NCI-H226, 72 h, CTG 2.0, cell line not given (NCI-H226 responsive, NCI-H28 non-responsive). The method in brief: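 NF2-deficient NCI-H226 mesothelioma cells, TEAD-dependent, treated 72 h; NF2-wild-type NCI-H28 serves as the TEAD-independent counter-screen for off-target cytotoxicity. Viable cells quantified by CellTiter-Glo 2.0 luminescence; background and time-zero signal subtracted, GI50 from nonlinear dose-response fit.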

Where only a bound is given, the exact number is not on record here.

As for `C=CC(=O)NC(C)(CO)c1cn2ccnc2c(-c2ccc(C(F)(F)F)cc2)n1` (stereo not shown) [I-251, N-(1-hydroxy-2-(8-(4-(trifluoromethyl)phenyl)imidazo[1,2-a]pyrazin-6-yl)propan-2-yl)acrylamide], the 50% growth inhibitory concentration (GI50) (commonly the concentration at which growth is held to half of that of the control) is ≤ 1000 nM.
For `C=CC(=O)Nc1ccc2c(C)cc(-c3ccc(C(F)(F)F)cn3)nc2c1` [I-252, N-(4-methyl-2-(5-(trifluoromethyl)pyridin-2-yl)quinolin-7-yl)acrylamide], the GI50 is ≤ 1000 nM.
With `COC[C@H](C)NC(=O)c1cnc2c(N3CCC(CC(F)(F)F)CC3)cc(OC)cc2c1` [I-253, (S)-6-methoxy-N-(1-methoxypropan-2-yl)-8-(4-(2,2,2-trifluoroethyl)piperidin-1-yl)quinoline-3-carboxamide] the figure was 1000 to 5000 nM; with `Cc1cc(-c2ccc(C(F)(F)F)cc2)nc2cc(-c3nnn[nH]3)ccc12` [I-254, 4-Methyl-7-(1H-tetrazol-5-yl)-2-(4-(trifluoromethyl)phenyl)quinoline], 5000 to 10000 nM; with `Cc1cc(-c2ccc(OC(F)(F)F)cc2)nc2cc(C(=O)N[C@H](C)CO)ccc12` [I-255, (R)—N-(1-hydroxypropan-2-yl)-4-methyl-2-(4-(trifluoromethoxy)phenyl)quinoline-7-carboxamide], 1000 to 5000 nM.
The figure for `Cc1cc(-c2ccc(OC(F)(F)F)cc2)nc2cc(C(=O)O)ccc12` [I-256, 4-methyl-2-(4-(trifluoromethoxy)phenyl)quinoline-7-carboxylic acid] is 1000 to 5000 nM; for `C=CC(=O)Nc1c(C)nc2c(-c3ccc(C(C)(C)C)cc3)nccn12` [I-257, N-(8-(4-(tert-butyl)phenyl)-2-methylimidazo[1,2-a]pyrazin-3-yl)acrylamide] it is 5000 to 10000 nM.
In the case of `Cc1cc(-c2ccc(C(F)(F)F)cc2)nc2cc(C(N)=O)ccc12` [I-258, 4-Methyl-2-(4-(trifluoromethyl)phenyl)quinoline-7-carboxamide], the GI50 lay in the range of 1000 to 5000 nM.
The figure for `Cc1cc(-c2ccc(C(F)(F)F)cc2)nc2cc(C(=O)NCCO)ccc12` [I-259, N-(2-hydroxyethyl)-4-methyl-2-(4-(trifluoromethyl)phenyl)quinoline-7-carboxamide] is ≤ 1000 nM; for `Cc1cc(-c2ccc(C(F)(F)F)cc2)nc2cc(C(=O)NC(C)CO)ccc12` (stereo not shown) [I-260, N-(1-hydroxypropan-2-yl)-4-methyl-2-(4-(trifluoromethyl)phenyl)quinoline-7-carboxamide] it is ≤ 1000 nM.
With `Cc1cc(-c2ccc(C(F)(F)F)cc2)nc2cc(C(=O)N[C@H](C)CO)ccc12` [I-261, (R)—N-(1-hydroxypropan-2-yl)-4-methyl-2-(4-(trifluoromethyl)phenyl)quinoline-7-carboxamide] the figure was ≤ 1000 nM.
In the case of `Cc1cc(-c2ccc(C(F)(F)F)cc2)nc2cc(C(=O)N[C@@H](C)CO)ccc12` [I-262, (S)—N-(1-hydroxypropan-2-yl)-4-methyl-2-(4-(trifluoromethyl)phenyl)quinoline-7-carboxamide], the GI50 is ≤ 1000 nM.
With `COC[C@H](C)NC(=O)c1ccc2c(C)cc(-c3ccc(C(F)(F)F)cc3)nc2c1` [I-263, (S)—N-(1-methoxypropan-2-yl)-4-methyl-2-(4-(trifluoromethyl)phenyl)quinoline-7-carboxamide] the figure was ≤ 1000 nM; with `Cc1cc(-c2ccc(C(F)(F)F)cc2)nc2cc(C(=O)N[C@@H](C)COC(F)(F)F)ccc12` [I-264, (S)-4-methyl-N-(1-(trifluoromethoxy)propan-2-yl)-2-(4-(trifluoromethyl)phenyl)quinoline-7-carboxamide], 1000 to 5000 nM; with `CC[C@H](CO)NC(=O)c1ccc2c(C)cc(-c3ccc(C(F)(F)F)cc3)nc2c1` [I-265, (R)—N-(1-hydroxybutan-2-yl)-4-methyl-2-(4-(trifluoromethyl)phenyl)quinoline-7-carboxamide], ≤ 1000 nM.
The figure for `Cc1cc(-c2ccc(C(F)(F)F)cc2)nc2cc(C(=O)N[C@@H](C)c3cccc(C(=O)O)c3)ccc12` [I-267, (S)-3-(1-(4-methyl-2-(4-(trifluoromethyl)phenyl)quinoline-7-carboxamido)ethyl)benzoic acid] is ≤ 1000 nM.
The figure for `COc1cccc([C@H](C)NC(=O)c2ccc3c(C)cc(-c4ccc(C(F)(F)F)cc4)nc3c2)c1` [I-268, (S)—N-(1-(3-methoxyphenyl)ethyl)-4-methyl-2-(4-(trifluoromethyl)phenyl)quinoline-7-carboxamide] is ≤ 1000 nM; for `Cc1cc(-c2ccc(C(F)(F)F)cc2)nc2cc(C(=O)N[C@@H](C)c3cccc(O)c3)ccc12` [I-269, (S)—N-(1-(3-hydroxyphenyl)ethyl)-4-methyl-2-(4-(trifluoromethyl)phenyl)quinoline-7-carboxamide] it is ≤ 1000 nM.
As for `COCc1cc(-c2ccc(C(F)(F)F)cc2)nc2cc(C(=O)O)ccc12` [I-270, 4-(methoxymethyl)-2-(4-(trifluoromethyl)phenyl)quinoline-7-carboxylic acid], the GI50 was ≤ 1000 nM.
The figure for `COCc1cc(-c2ccc(C(F)(F)F)cc2)nc2cc(C(=O)N[C@H](C)CO)ccc12` [I-271, (R)—N-(1-hydroxypropan-2-yl)-4-(methoxymethyl)-2-(4-(trifluoromethyl)phenyl)quinoline-7-carboxamide] is 1000 to 5000 nM; for `O=C(O)c1ccc2c(c1)nc(C13CC(C(F)(F)F)(C1)C3)c1cccn12` [I-272, 4-(3-(trifluoromethyl)bicyclo[1.1.1]pentan-1-yl)pyrrolo[1,2-a]quinoxaline-7-carboxylic acid] it is 1000 to 5000 nM; for `CC(C)(C)c1ccc(-c2nc3cc(C(=O)O)ccc3n3cc(OC(F)F)cc23)cc1` [I-274, 4-(4-(tert-butyl)phenyl)-2-(difluoromethoxy)pyrrolo[1,2-a]quinoxaline-7-carboxylic acid] it is ≤ 1000 nM.
The figure for `O=C(O)c1ccc2c(c1)nc(-c1ccc(C(F)(F)F)cc1)c1cc(OC(F)F)cn12` [I-275, 2-(difluoromethoxy)-4-(4-(trifluoromethyl)phenyl)pyrrolo[1,2-a]quinoxaline-7-carboxylic acid] is ≤ 1000 nM.
The figure for `O=C(O)c1ccc2c(c1)nc(N1CCC3(CC1)CC3)c1ccnn12` [I-277, 4-(6-azaspiro[2.5]octan-6-yl)pyrazolo[1,5-a]quinoxaline-7-carboxylic acid] is 1000 to 5000 nM; for `O=C(O)c1cc(CO)c2c(c1)nc(N1CCC3(CC1)CC3)c1cccn12` [I-278, 9-(hydroxymethyl)-4-(6-azaspiro[2.5]octan-6-yl)pyrrolo[1,2-a]quinoxaline-7-carboxylic acid] it is 1000 to 5000 nM; for `CC(C)(C)c1ccc(-c2nc3cc(C(=O)O)cc(CO)c3n3cccc23)cc1` [I-279, 4-(4-(tert-butyl)phenyl)-9-(hydroxymethyl)pyrrolo[1,2-a]quinoxaline-7-carboxylic acid] it is 1000 to 5000 nM.
Turning to `O=C(O)c1ccc2c(c1)nc(-c1ccc(C(F)(F)F)cc1)c1c(F)ccn12` [I-280, 3-fluoro-4-(4-(trifluoromethyl)phenyl)pyrrolo[1,2-a]quinoxaline-7-carboxylic acid], the GI50 is ≤ 1000 nM.
`O=C(O)c1cc2nc(N3CCC4(CC3)CC4)c3cccn3c2cn1` [I-281, 6-(6-azaspiro[2.5]octan-6-yl)pyrido[4,3-e]pyrrolo[1,2-a]pyrazine-3-carboxylic acid] displayed a concentration for 50% growth inhibition (GI50) of 1000 to 5000 nM.
